Consider two compounds from patent US20030166723A1, “Ige production inhibitors” (priority 2000, published 2003).

Read-outs that look alike come from different tables or passages of the source.

Assay [1] relates to IgE. The conditions noted are these: for total IgE amount in plasma compared with control group: stomach tube. Here is the method: As the model animal, 5-week-old male NC/Nga mice bred in SPF environment, presenting neither dermatitis-like feature nor hyperIgE syndrome were used. To these mice, GLA ethyl ester (degree of purification of 95.98%: manufactured by Idemitsu Material Co., Ltd.) was administered by a stomach tube method in a dosage of 50 mg/individual once every other day starting from 5-week-old to obtain a GLA-administered group composed of 6 animals. On the other hand, as a control, PBS (phosphate buffered saline) instead of GLA ethyl ester was likewise administered in a dosage of 50 μg/individual to obtain a control group composed of 6 animals.
In addition, blood was collected from the above-mentioned mice at the time of starting the administration (5 weeks old), and at 7, 9, and 11 weeks old and was centrifuged at 1,500 rpm for 10 minutes to obtain plasma. Then, total IgE amount in the plasma was measured by a sandwich ELISA method. A concrete method thereof is described below.
Rat anti-murine IgE monoclonal antibody (manufactured by PharMingen Co.) diluted to […] with coating buffer (0.1 M NaHCO3, 0.5 M NaCl, pH 8.5) was added to each well of a plate (NUNC-IMMUNOPLATE, manufactured by NUNC Inc., A/S) in an amount of 50 μl, and left to stand at 4° C. overnight or at 37° C. for 3 hours, followed by washing the wells with PBS/Tween (PBS, 0.05% Tween-20, pH 7.5) 3 times.
To each well, 200 μl of blocking buffer (PBS containing 2% skimmed milk) was added and incubated at 37° C. for 3 hours, followed by washing the wells with PBS/Tween 3 times.
Then, the above-mentioned murine plasma was diluted 100 folds with dilution buffer (PBS, 2% skimmed milk, 0.25% SDS) to prepare a sample for measurement. Furthermore, murine IgE standard (manufactured by PharmMingen Co.) was diluted with dilution buffer to prepare a standard for measurement.
The samples for measurement and standard were added to each well in amounts of 50 μl/well and incubated at 37° C. for 3 hours, followed by washing the wells with PBS/Tween 3 times.
Biotinylated rat anti-murine IgE antibody (manufactured by PharmMingen Co.) diluted to 2 μg/ml with dilution buffer was added to each well in an amount of 50 μl and incubated at 37° C. for about 3 hours, followed by washing the wells with PBS/Tween 6 times.
Furthermore, alkaline phosphatase-labeled Streptoavidin (manufactured by BioSource, Inc.) diluted to 1.000 folds with dilution buffer was added to the wells in an amount of 50 μl/well and incubated at 37° C. for 1 hour, followed by washing the wells with PBS/Tween 6 times.
As the model animal, 5-week-old male NC/Nga mice bred in SPF environment, presenting neither dermatitis-like feature nor hyperIgE syndrome were used. The animals were divided into each group composed of 10 animals. For the GLA-administered group, GLA ethyl ester (degree of purification of 95.98%: manufactured by Idemitsu Material Co., Ltd.) was administered by a stomach tube method in a dosage of 0.1 mg/individual once every other day. Administration of GLA was performed by using, olive oil containing little essential fatty acid which was added to 0.1 mg of GLA ethyl ester to make 50 μl. For the control group, 50 μl of olive oil alone was likewise administered.
The disease score of mice in these groups were calculated every week in the same manner as in Example 1 and total IgE amount in plasma was measured once every other week.

Assay [2] deals with NC/Nga mice. The assay is described as follows: Disease score of NC/Nga mice (AD model), oral administration. In kind it is in vivo, mouse. From the text:
As a model animal, NC/Nga mouse was used. The NC/Nga mouse is an inbred mouse established in 1957, which is originated from “[…]” mouse, a pet mouse. Long since, it has been known that this mouse is sensitive to X-rays and to ovalbumin-caused anaphylactic shocks. […] Such AD-like phenotype occurs in the ordinary environment but not in a SPF (specific pathogen-free) environment where neither microorganism nor parasite exists, so that the onset of the disease can be controlled. In this view, the mouse was used as a disease model of atopic dermatitis in carrying out the present invention As the model animal, 5-week-old male NC/Nga mice bred in SPF environment, presenting neither dermatitis-like feature nor hyperIgE syndrome were used. To these mice, GLA ethyl ester (degree of purification of 95.98%: manufactured by Idemitsu Material Co., Ltd.) was administered by a stomach tube method in a dosage of 50 mg/individual once every other day starting from 5-week-old to obtain a GLA-administered group composed of 6 animals. On the other hand, as a control, PBS (phosphate buffered saline) instead of GLA ethyl ester was likewise administered in a dosage of 50 μg/individual to obtain a control group composed of 6 animals. In each week from the onset of administration (5 weeks old) up to 19 weeks old, the disease scores of the above-mentioned mice were converted into points according to the method of Matsuda et al. (Int. Immunol., 9, 461-466, 1997). A concrete method is described below. The following 5 items from A to E were scored by a three point full mark scoring system of 0 (none), 1 (slightly aggravated), 2 (moderately aggravated), and 3 (considerably aggravated). In total, 15 points make a full score. […] B (erythema, bleeding); Bleeding from ears and face and erythema on the back of ears were scored. C (edema): Mainly, degree of swelling of ears was scored. D (abrasions, erosion): Abrasions around the face, on the back of ears, and at around the base of arm were scored. E (dryness): Degree of dry skin from the back to the face was scored. As the model animal, 5-week-old male NC/Nga mice bred in SPF environment, presenting neither dermatitis-like feature nor hyperIgE syndrome were used. The animals were divided into each group composed of 10 animals. For the GLA-administered group, GLA ethyl ester (degree of purification of 95.98%: manufactured by Idemitsu Material Co., Ltd.) was administered by a stomach tube method in a dosage of 0.1 mg/individual once every other day. Administration of GLA was performed by using, olive oil containing little essential fatty acid which was added to 0.1 mg of GLA ethyl ester to make 50 μl. For the control group, 50 μl of olive oil alone was likewise administered. The disease score of mice in these groups were calculated every week in the same manner as in Example 1 and total IgE amount in plasma was measured once every other week.

In assay [3] the test system is spleen cells of NC/Nga mice. The following applies: BrdU 60-72 hours. The method, then: Here, the addition of GLA was performed by diluting it with ethanol to appropriate concentrations and making the final concentration of ethanol to be 0.1%.
For assay [4], the system named is spleen cells of NC/Nga mice. The text has this:
In this example, the effect of GLA to inhibit IgE production in vitro was studied by an in vitro class switch induction system using spleen cells of the mice. First, spleen cells were collected from NC/Nga mice by the following method. An 8-week-old NC/Nga mouse bred in SPF environment, presenting neither dermatitis-like feature nor hyperIgE syndrome was sacrificed by dislocation fracture of the cervical vertebrae and the spleen was extracted in a sterile condition. The extracted spleen was placed in RPMI-1640 medium (about 3 ml) in a dish, and separated into individual cells with a sterilized pincette. The separated cells were placed in a 15-ml Falcon tube and the membrane of the spleen was removed. Then, the cells suspended in the medium were centrifuged at 1,500 rpm for 5 minutes to recover only the cells. Subsequently, to remove erythrocytes, the recovered cells were suspended in 10 ml of sterilized lysis buffer at 4° C. to cause hemolysis, followed by washing twice with sterilized PBS produced by Milli-Q at 4° C. to collect spleen cells. A portion of the obtained spleen cells was stained with Trypan Blue (Trypan Blue Stain 0.4%: manufactured by LIFE TECHNOLOGIES, INC.) and counted on a hemacytometer. Then, measurement of IgE amount in the culture supernatant in a class switch induction system was performed by the following procedure. Based on the number of cells counted by the above-mentioned method, the cells were inoculated on a plate (96-well cell culture microtest plate, with flat bottom, low evaporation type, made of polystyrene with a lid: manufactured by FALCON CO.) to a concentration of 2×10^5 cells/ml per well. The medium used here contained cytokine IL-4 (100 U/ml) and LPS (10 μg/ml) as stimulants for the IgE class switch induction. To observe the influences of GLA before, during, or after the stimulation for class switch, GLA was added to the media in various concentrations (0, 10, 20, 40, 60, 80, 120, 160 μg/ml) after 0 hour (at the start of culture), 48 hours, or 72 hours from the start. Here, the addition of GLA was performed by diluting it with ethanol to appropriate concentrations and making the final concentration of ethanol to be 0.1%. All the cultures were performed at 37° C. in a 5%-CO2 incubator and the cultured supernatants were recovered after 7 days (after 168 hours). The IgE amounts thereof were measured by a sandwich ELISA method.

The mark [5] stands for this setting: oral administration of olive oil containing 0.1 mg GLA ethyl ester.

With `CCCCC/C=C\C/C=C\C/C=C\CCCCC(=O)OCC` [GLA ethyl ester], the “IgE amount (summary of Example 2)” value in assay [1] (setting [5]) was “significantly low”. Further, in assay [2] (setting [5]), the “disease score (summary of Example 2)” value was “significantly low”.
As for `CCCCC/C=C\C/C=C\C/C=C\CCCCC(=O)O` [GLA, γ-linolenic acid], the “inhibition of IgE production in vivo” value in assay [1] (2 month-long oral administration to AD-suffering NC/Nga mice with hyperIgE syndrome) is recorded as “no inhibition of IgE production”. Further, the “increase of total IgE amount in plasma with time” value in assay [1] (GLA ethyl ester 0.1 mg/individual in olive oil, once every other day, at week 13 and thereafter) is on record as “no significant increase was observed”. In addition, the “total IgE amount in plasma compared with control group” value is recorded as “significantly low values” in assay [1] (GLA ethyl ester 0.1 mg/individual in olive oil, once every other day, vs olive oil control, week 13 to week 19); “low in total IgE amount” in assay [1] (GLA ethyl ester 50 mg/individual, once every other day, vs PBS control, each measurement period (weeks 5, 7, 9, 11)); “significantly low” in assay [1] (GLA ethyl ester 50 mg/individual, once every other day, vs PBS control, week 11). For the same compound, the “average disease score compared with control group” value in assay [2] (GLA ethyl ester 0.1 mg/individual in olive oil, stomach tube, once every other day, vs olive oil control, week 9 or thereafter) is given as “low average scores”. Moreover, the “disease score compared with control group” value in assay [2] (GLA ethyl ester 0.1 mg/individual in olive oil, stomach tube, once every other day, vs olive oil control, weeks 15 to 17) was “significantly low scores”; in assay [2] (GLA ethyl ester 50 mg/individual, stomach tube, once every other day from 5 weeks old, vs PBS control, week 11 and weeks 13 to 19) it was “significant inhibition of the disease score”. In addition, the “increase of disease score with time” value in assay [2] (GLA ethyl ester 50 mg/individual, stomach tube, once every other day, at week 11 or thereafter) was “no significant increase was observed”. In assay [3] (GLA 0-160 μg/ml added after 0 hour), the “cell proliferation potency with increase of added GLA concentration” value is on record as “a decrease in the cell proliferation potency was observed”. Also, in assay [3] (GLA 40 μg/ml added after 0 hour), the “cell proliferation compared to no-GLA-added lot” value is recorded as “did not substantially decrease”. For the same compound, the “amount of totally produced IgE compared to no-GLA-added lot” value in assay [4] (GLA 40 μg/ml added after 0 hour of culture) is “about one tenth”. For the same compound, in assay [4] (GLA 20 to 60 μμg/ml added after 0 hour), the “degree of decrease in total IgE amount produced versus decrease in cell proliferation” value is “significantly greater”. Also, the “inhibition of IgE production, dependence on concentration” value in assay [4] (GLA added after 0 hour of culture, 0-160 μg/ml, supernatant after 7 days) is reported as “inhibits IgE production dose-dependently”. Besides, the “inhibition of IgE production (IgE amount in culture supernatant)” value was “complete inhibition of the IgE production” in assay [4] (GLA added after 0 hour of culture, 120 μg/ml, supernatant after 7 days); “not complete but significant inhibition” in assay [4] (GLA added after 48 hours of culture, above 120 μg/ml); “no IgE inhibition was observed” in assay [4] (GLA added after 48 hours of culture, up to 80 μg/ml); “no significant inhibition of IgE production was observed” in assay [4] (GLA added after 72 hours of culture, at the added concentrations measured (10-160 μg/ml)).
